Assay results taken from patent US20210353784A1, “DETECTING AND TREATING CANCERS USING CELL PENETRANT MTP53-OLIGOMERIZATION-DOMAIN PEPTIDE” (priority 2020, published 2021).
Ends that are not written are not given here.

Tested on: MDA-MB-468 and MCF7 cells
Assay: Live cell imaging staining with Cy5 conjugated first and second-generation TAT-mtp53ODP
Type: cell-based, Human
Conditions: 500 nM, 4 h incubation
Description: FIG. 7 quantifies the results of live cell imaging staining of MDA-MB-468 and MCF7 cells with 4 h incubation of 500 nM Cy5 conjugated first (TAT-mtp53ODP-35mer, SEQ ID NO: 3) and second-generation (TAT-mtp53ODP-27mer (SEQ ID NO: 7) and TAT-mtp53ODP-37mer (SEQ ID NO: 8)) after 4 h incubation. Cells were imaged by confocal microscopy. Quantification of Cy5 conjugated TAT-mtp53ODP uptake in MDA-MB-468 cells and MCF7 cells was conducted by Nikon Element analysis. […] Three independent experiments with biological replicate were performed. Statistical analyses were conducted in Graphpad Prism 9. Results are expressed as mean+SEM. Statistical significance for hypothesis testing was performed by Student's t-test. The following format was used to assign significance based on P-value: *p-value ≤0.05, ** p-value […] p-value ≤0.001.
Live cell imaging staining was also performed on second-generation peptides based on Cy5-conjugated SEQ ID NO: 7 and SEQ ID NO: 8. FIG. 7 depicts the results of live cell imaging staining of MDA-MB-468 and MCF7 cells with 4 h incubation of 500 nM Cy5 conjugated first (TAT-mtp53ODP-35mer, SEQ ID NO: 3) and second-generation (TAT-mtp53ODP-27mer (SEQ ID NO: 7) and Cy5-conjugated TAT-mtp53ODP-37mer (SEQ ID NO: 8)) after 4 h incubation. Cells were imaged by confocal microscopy. A scrambled peptide was included as a control. […]

For “GRKKRRQRRGEYFTLQIRGRERFEMFR (also: Cy5 conjugate) [TAT-mtp53ODP-27mer, Cy5 conjugated second-generation TAT-mtp53ODP peptide]”, the “activity relative to TAT-mtp53ODP-35mer (SEQ ID NO: 3)” value was “reduced activity”.
With “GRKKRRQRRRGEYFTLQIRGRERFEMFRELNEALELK (also: Cy5 conjugate) [TAT-mtp53ODP-37mer, Cy5 conjugated second-generation TAT-mtp53ODP peptide]” the “activity relative to TAT-mtp53ODP-35mer (SEQ ID NO: 3)” value was “enhanced activity”.
